Source: ChEMBL document CHEMBL1153216, “Parallel synthesis of N-biaryl quinolone carboxylic acids as selective M(1) positive allosteric modulators” (Bioorg Med Chem Lett, 2010)

Columns and labels:
[1] = molecular target: T1, Muscarinic acetylcholine receptor M1 (Homo sapiens) (UniProt P11229); assay: Allosteric modulation of human muscarinic M1 receptor expressed in CHO cells assessed as effect on acetylcholine-induced calcium mobilization by FLIPR assay; assay type: functional, cell-based
T1 sequence (whole entry): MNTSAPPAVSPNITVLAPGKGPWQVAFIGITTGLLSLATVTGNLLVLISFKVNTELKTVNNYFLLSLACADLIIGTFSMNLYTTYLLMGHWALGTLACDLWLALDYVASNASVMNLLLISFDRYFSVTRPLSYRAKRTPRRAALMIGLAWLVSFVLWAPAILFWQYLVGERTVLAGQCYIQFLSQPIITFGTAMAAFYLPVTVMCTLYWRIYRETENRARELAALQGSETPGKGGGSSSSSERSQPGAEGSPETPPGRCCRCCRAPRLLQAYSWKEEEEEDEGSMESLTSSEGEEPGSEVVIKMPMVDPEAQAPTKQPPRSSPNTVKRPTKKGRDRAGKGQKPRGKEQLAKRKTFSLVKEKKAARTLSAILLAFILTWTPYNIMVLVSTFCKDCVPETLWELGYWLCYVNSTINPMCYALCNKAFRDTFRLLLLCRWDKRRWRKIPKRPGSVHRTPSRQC

[2] = Drug level in rat cerebrospinal fluid at 10 mg/kg, po after 1 hr
[3] = Plasma protein binding in rat serum by equilibrium dialysis method
[4] = Plasma protein binding in human serum by equilibrium dialysis method

| Compound | IP [1] | also measured |
| --- | --- | --- |
| O=C(O)c1cn(Cc2ccccc2)c2c(F)cccc2c1=O | 4000 nM |  |
| O=C(O)c1cn(Cc2ccc(-c3ccccc3)cc2F)c2ccccc2c1=O | 50 nM |  |
| O=C(O)c1cn(Cc2ccc(-c3ccncc3)cc2)c2c(F)cccc2c1=O | 100 nM |  |
| O=C(O)c1cn(Cc2ccc(C3CC3)cc2)c2cccc(F)c2c1=O | 830 nM |  |
| O=C(O)c1cn(Cc2ccc(-c3ccccc3)cc2)c2c(F)ccc(F)c2c1=O | 270 nM |  |
| O=C(NCCO)c1cccc(-c2ccc(Cn3cc(C(=O)O)c(=O)c4cccc(F)c43)cc2)c1 | 99 nM |  |
| CN(C)c1cccc(-c2ccc(Cn3cc(C(=O)O)c(=O)c4cccc(F)c43)cc2)c1 | 94 nM |  |
| O=C(O)c1cn(Cc2ccc(-c3ccccc3)cc2)c2c(F)cccc2c1=O | 380 nM |  |
| O=C(O)c1cn(Cc2ccc(OC(F)(F)F)cc2)c2ccccc2c1=O | 1800 nM |  |
| O=C(O)c1cn(Cc2ccc(Br)cc2F)c2c(F)cccc2c1=O | 1200 nM |  |
| CS(=O)(=O)c1ccc(Cn2cc(C(=O)O)c(=O)c3c(F)ccc(F)c32)cc1 | 16000 nM |  |
| COc1ncc(-c2ccc(Cn3cc(C(=O)O)c(=O)c4ccccc43)c(F)c2)cn1 | 510 nM |  |
| O=C(O)c1cn(Cc2cccc(OC(F)(F)F)c2)c2cccc(F)c2c1=O | 5900 nM |  |
| O=C(O)c1cn(Cc2ccc(-c3ccccc3)cc2Cl)c2ccccc2c1=O | 120 nM |  |
| O=C(O)c1cn(CCc2ccccc2)c2ccccc2c1=O | > 100000 nM |  |
| O=C(O)c1cn(Cc2ccc(C(F)(F)F)cc2)c2c(F)ccc(F)c2c1=O | 760 nM |  |
| O=C(O)c1cn(Cc2c(F)cccc2F)c2c(F)ccc(F)c2c1=O | 610 nM |  |
| O=C(O)c1cn(C2(c3ccccc3)CC2)c2c(F)cccc2c1=O | 22000 nM |  |
| O=C(O)c1cn(CCc2ccccc2)c2c(F)cccc2c1=O | 24000 nM |  |
| O=C(O)c1cn(Cc2cccc(C(F)(F)F)c2)c2c(F)ccc(F)c2c1=O | 1600 nM |  |
| COc1cccc(Cn2cc(C(=O)O)c(=O)c3c(F)ccc(F)c32)c1 | 4200 nM |  |
| O=C(O)c1cn(Cc2ccc(OC(F)(F)F)cc2)c2c(F)ccc(F)c2c1=O | 1300 nM |  |
| N#Cc1ccccc1-c1ccc(Cn2cc(C(=O)O)c(=O)c3cccc(F)c32)cc1 | 540 nM |  |
| O=C(O)c1cn(Cc2ccc(-c3cccnc3)cc2)c2cccc(F)c2c1=O | 61 nM | concentration at 1 h [2]: 24 nM; fraction unbound [3]: 0.051; fraction unbound [4]: 0.055 |

| Compound | IP [1] | also measured |
| --- | --- | --- |
| O=C(O)c1cn(Cc2ccc(Br)cc2F)c2c(F)ccc(F)c2c1=O | 860 nM |  |
| Nc1cccc(-c2ccc(Cn3cc(C(=O)O)c(=O)c4cccc(F)c43)cc2)c1 | 210 nM |  |
| O=C(O)c1cn(Cc2ccc(-c3cn[nH]c3)cc2F)c2ccccc2c1=O | 56 nM |  |
| O=C(O)c1cn(Cc2ccccc2C(F)(F)F)c2ccccc2c1=O | 4300 nM |  |
| O=C(O)c1cn(Cc2ccc(-c3cn[nH]c3)cc2F)c2cccc(F)c2c1=O | 41 nM | fraction unbound [3]: 0.02; fraction unbound [4]: 0.044 |
| CNc1ccc(-c2ccc(Cn3cc(C(=O)O)c(=O)c4cccc(F)c43)cc2)cn1 | 48 nM |  |
| COc1ccc(Cn2cc(C(=O)O)c(=O)c3cccc(F)c32)cc1 | 1100 nM |  |
| O=C(O)c1cn(Cc2ccccc2)c2ccccc2c1=O | 1700 nM |  |
| O=C(O)c1cn(Cc2ccc(C(F)(F)F)cc2)c2c(F)cccc2c1=O | 980 nM |  |
| O=C(O)c1cn(Cc2ccc(-c3cccc4[nH]ccc34)cc2)c2c(F)cccc2c1=O | 76 nM |  |
| O=C(O)c1cn(Cc2cccc(OC(F)(F)F)c2)c2ccccc2c1=O | 4100 nM |  |
| O=C(O)c1cn(Cc2cccc(OC(F)(F)F)c2)c2c(F)cccc2c1=O | 3600 nM |  |
| COc1cccc(Cn2cc(C(=O)O)c(=O)c3c(F)cccc32)c1 | 2100 nM |  |
| O=C(NC1CC1)c1ccc(-c2ccc(Cn3cc(C(=O)O)c(=O)c4cccc(F)c43)cc2)cc1 | 110 nM |  |
| O=C(O)c1cn(Cc2ccc(-c3ccccc3)cc2)c2cccc(F)c2c1=O | 84 nM |  |
| O=C(O)c1cn(Cc2ccc(OC(F)(F)F)cc2)c2c(F)cccc2c1=O | 2100 nM |  |
| COc1ccc(-c2ccc(Cn3cc(C(=O)O)c(=O)c4cccc(F)c43)cc2)cn1 | 63 nM |  |
| O=C(O)c1cn(C2(c3ccccc3)CC2)c2ccccc2c1=O | 13000 nM |  |
| NC(=O)c1cccc(Cn2cc(C(=O)O)c(=O)c3cccc(F)c32)c1 | 3400 nM |  |
| O=C(O)c1cn(Cc2ccc(-c3ccccc3)cc2)c2ccccc2c1=O | 210 nM |  |
| Nc1ccc(-c2ccc(Cn3cc(C(=O)O)c(=O)c4cccc(F)c43)cc2)cn1 | 130 nM |  |
| O=C(O)c1cn(Cc2cccc(OC(F)(F)F)c2)c2c(F)ccc(F)c2c1=O | 3200 nM |  |
| COc1ccc(Cn2cc(C(=O)O)c(=O)c3c(F)cccc32)cc1 | 2000 nM |  |
| O=C(O)c1cn(Cc2ccccc2C(F)(F)F)c2c(F)cccc2c1=O | 6900 nM |  |

| Compound | IP [1] | also measured |
| --- | --- | --- |
| COc1cccc(Cn2cc(C(=O)O)c(=O)c3cccc(F)c32)c1 | 2700 nM |  |
| CN(C)c1cc(-c2ccc(Cn3cc(C(=O)O)c(=O)c4cccc(F)c43)cc2)ccn1 | 45 nM |  |
| O=C(O)c1cn(Cc2ccc(C(F)(F)F)cc2)c2cccc(F)c2c1=O | 1500 nM |  |
| O=C(O)c1cn(Cc2ccc(-c3cncnc3)cc2)c2c(F)cccc2c1=O | 830 nM |  |
| CN(C)Cc1cccc(-c2ccc(Cn3cc(C(=O)O)c(=O)c4cccc(F)c43)cc2)c1 | 220 nM |  |
| N#Cc1ccccc1-c1ccc(Cn2cc(C(=O)O)c(=O)c3c(F)cccc32)cc1 | 400 nM |  |
| O=C(O)c1cn(Cc2ccccc2C(F)(F)F)c2c(F)ccc(F)c2c1=O | 2300 nM |  |
| O=C(O)c1cn(Cc2cccc(C(F)(F)F)c2)c2ccccc2c1=O | 7200 nM |  |
| O=C(O)c1cn(Cc2ccc(-c3cccc(CO)n3)cc2)c2c(F)cccc2c1=O | 250 nM | fraction unbound [3]: 0.022; fraction unbound [4]: 0.058 |
| COc1cccc(Cn2cc(C(=O)O)c(=O)c3ccccc32)c1 | 2800 nM |  |
| Cn1cc(-c2ccc(Cn3cc(C(=O)O)c(=O)c4ccccc43)c(F)c2)cn1 | 37 nM |  |
| O=C(O)c1cn(Cc2c(F)cccc2F)c2cccc(F)c2c1=O | 1300 nM |  |
| O=C(O)c1cn(Cc2ccc(Br)cc2F)c2cccc(F)c2c1=O | 1100 nM |  |
| O=C(O)c1cn(Cc2ccccc2)c2c(F)ccc(F)c2c1=O | 3000 nM |  |
| CS(=O)(=O)c1ccc(Cn2cc(C(=O)O)c(=O)c3cccc(F)c32)cc1 | 13000 nM |  |
| O=C(O)c1cn(Cc2ccc(OC(F)(F)F)cc2)c2cccc(F)c2c1=O | 2800 nM |  |
| CN1CCN(c2ccc(-c3ccc(Cn4cc(C(=O)O)c(=O)c5cccc(F)c54)cc3)cn2)CC1 | 51 nM |  |
| NC(=O)c1cccc(Cn2cc(C(=O)O)c(=O)c3ccccc32)c1 | 4300 nM |  |
| CS(=O)(=O)c1ccc(Cn2cc(C(=O)O)c(=O)c3ccccc32)cc1 | 18000 nM |  |
| O=C(O)c1cn(Cc2cccc(C(F)(F)F)c2)c2c(F)cccc2c1=O | 2700 nM |  |
| O=C(O)c1cn(Cc2c(F)cccc2F)c2c(F)cccc2c1=O | 1000 nM |  |
| O=C(O)c1cn(Cc2ccc(-c3cccc4cccnc34)cc2)c2cccc(F)c2c1=O | 190 nM | fraction unbound [3]: 0.015 |
| O=C(O)c1cn(Cc2ccc(C3CC3)cc2)c2c(F)cccc2c1=O | 1200 nM |  |
